Test results: BindingDB's records for doi:10.1021/jm00157a007 (1987)

target: Chymotrypsinogen A (Bos taurus) (UniProt P00766); assay: In vitro binding affinity towards alpha-chymotrypsin from bovine pancreas.

| Ki | SMILES |
| --- | --- |
| 3.9 µM | CCCCc1ccc(=O)oc1Cl [5-Butyl-6-chloro-pyran-2-one] |
| 75 µM | O=c1ccc(-c2ccccc2)co1 [5-Phenyl-pyran-2-one] |
| 0.27 µM | O=c1oc(Cl)ccc1-c1ccccc1 [6-Chloro-3-phenyl-pyran-2-one] |
| 5.6 µM | CCc1ccc(=O)oc1Cl [6-Chloro-5-ethyl-pyran-2-one] |
| 1.3 µM | O=c1ccc(-c2ccccc2)c(Cl)o1 [6-Chloro-5-phenyl-pyran-2-one] |
